Experimental data: patent US8299048B2, “Hexahydrocyclopentyl[f]indazole sulfonamides and derivatives thereof as selective glucocorticoid receptor modulators” (Merck Sharp & Dohme Corp., priority 2008, dated 2012)
Read-outs that look alike come from different tables or passages of the source.

Biological target: T1, human GR (Homo sapiens, UniProt P04150)
T1 sequence (P04150 1-777): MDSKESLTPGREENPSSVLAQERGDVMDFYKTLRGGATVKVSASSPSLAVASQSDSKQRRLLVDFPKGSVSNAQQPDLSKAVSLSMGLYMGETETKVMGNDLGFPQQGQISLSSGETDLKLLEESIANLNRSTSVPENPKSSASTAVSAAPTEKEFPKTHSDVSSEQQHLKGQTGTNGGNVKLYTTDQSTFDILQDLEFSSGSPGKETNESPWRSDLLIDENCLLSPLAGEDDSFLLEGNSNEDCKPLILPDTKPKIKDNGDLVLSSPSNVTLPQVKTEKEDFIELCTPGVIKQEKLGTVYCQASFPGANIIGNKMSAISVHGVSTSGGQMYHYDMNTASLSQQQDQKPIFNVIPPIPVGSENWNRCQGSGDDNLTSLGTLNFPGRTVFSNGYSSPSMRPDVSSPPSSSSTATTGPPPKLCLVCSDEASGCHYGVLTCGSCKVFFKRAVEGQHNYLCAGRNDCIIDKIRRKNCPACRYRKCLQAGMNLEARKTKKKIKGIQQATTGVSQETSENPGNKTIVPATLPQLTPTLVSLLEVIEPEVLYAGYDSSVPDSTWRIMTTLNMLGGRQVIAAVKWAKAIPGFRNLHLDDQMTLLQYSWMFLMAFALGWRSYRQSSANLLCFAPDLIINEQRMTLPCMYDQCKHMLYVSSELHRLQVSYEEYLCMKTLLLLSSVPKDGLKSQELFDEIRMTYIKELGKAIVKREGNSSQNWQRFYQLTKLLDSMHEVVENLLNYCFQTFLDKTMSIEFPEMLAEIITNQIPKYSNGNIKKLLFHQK
Experiment: Transrepression Assay (GITAR), TNFα-β-lactamase reporter in U937 cells
Format: cell-based
Parameters: U937 cells contain an endogenous glucocorticoid receptor (GR); endogenous in cells; host or cells: U937 cells stably transfected with the TNF-alpha promoter/beta-lactamase reporter
Settings: for GITAR > GRAMM % SEP: GITAR Emax minus GRAMMER Emax; for EC50: U937 cells, inflection point, read-out: Transrepression U937 Cells GITAR IP
In short: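 U937 cells stably carrying a TNF-α promoter–β-lactamase reporter, with endogenous GR, are preincubated with compound 30–45 min at 37 °C, then stimulated with PMA (5 ng/ml final) and LPS (100 ng/ml final) overnight (~18 hr). β-Lactamase is read with CCF2-AM substrate; repression by 100 nM dexamethasone defines 100%.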

[1] = U-937, U937 cells, maximum activity, read-out: Transrepression U937 Cells GITAR Emax
[2] = U-937, activity repressed by 100 nM dexamethasone alone set as 100%, read-out: maximal activity in the transrepression (GITAR) assay

| GITAR > GRAMM % SEP | EC50 | Emax [1] | Emax [2] | Compound |
| --- | --- | --- | --- | --- |
| 25.4% | 1050 nM | 34.1% | > 5% | COCCN(C[C@H]1CCC2=Cc3c(cnn3-c3ccc(F)cc3)C[C@@]21C)S(=O)(=O)CCN1C(=O)c2ccccc2C1=O [Example 118, 2-(1,3-dioxo-1,3-dihydro-2H-isoindol-2-yl)-N-{[(4αR,5S)-1-(4-fluorophenyl)-4α-methyl-1,4,4α,5,6,7-hexahydrocyclopenta[f]indazol-5-yl]methyl}-N-(2-methoxyethyl)ethanesulfonamide] |
| 37.0% | 190 nM | 91.1% | > 5% | CC(C1CCC2=Cc3c(cnn3-c3ccc(F)cc3)C[C@@]21C)N(CC1CC1)S(=O)(=O)CC(F)(F)F (stereo partly drawn) [Example 109, N-(cyclopropylmethyl)-2,2,2-trifluoro-N-{1-[(4αR)-1-(4-fluorophenyl)-4α-methyl-1,4,4α,5,6,7-hexahydrocyclopenta[f]indazol-5-yl]ethyl}ethanesulfonamide] |
| 0.3% | 708 nM | 78.4% | > 5% | C[C@]12Cc3cnn(-c4ccc(F)cc4)c3C=C1CC[C@@H]2CN(CCC(N)C(F)(F)F)S(=O)(=O)CC(F)(F)F (stereo partly drawn) [Example 147, N-(3-amino-4,4,4-trifluorobutyl)-2,2,2-trifluoro-N-{[(4aR,5S)-1-(4-fluorophenyl)-4α-methyl-1,4,4α,5,6,7-hexahydrocyclopenta[f]indazol-5-yl]methyl}ethanesulfonamide] |
| 24.6% | 64.4 nM | 86.8% | > 5% | C[C@]12Cc3cnn(-c4ccc(F)cc4)c3C=C1CC[C@@H]2CN(CCc1ccccc1F)S(=O)(=O)c1ccccc1C(F)(F)F [Example 99, N-[2-(2-fluorophenyl)ethyl]-N-{[(4αR,5S)-1-(4-fluorophenyl)-4α-methyl-1,4,4α,5,6,7-hexahydrocyclopenta[f]indazol-5-yl]methyl}-2-(trifluoromethyl)benzenesulfonamide] |
| 22.5% | 82.6 nM | 95.9% | > 5% | C[C@]12Cc3cnn(-c4ccc(F)cc4)c3C=C1CC[C@@H]2CN(CC(O)C(F)F)S(=O)(=O)CC(F)(F)F (stereo partly drawn) [Example 133, N-(3,3-difluoro-2-hydroxypropyl)-2,2,2-trifluoro-N-{[(4αR,5S)-1-(4-fluorophenyl)-4α-methyl-1,4,4α,5,6,7-hexahydrocyclopenta[f]indazol-5-yl]methyl}ethanesulfonamide] |
| 33.7% | 376 nM | 79.3% | > 5% | Cn1cc(S(=O)(=O)N(CCc2ccccn2)C[C@H]2CCC3=Cc4c(cnn4-c4ccc(F)cc4)C[C@@]32C)c(C(F)(F)F)n1 [Example 150, N-{[(4αR,5S)-1-(4-fluorophenyl)-4α-methyl-1,4,4α,5,6,7-hexahydrocyclopenta[f]indazol-5-yl]methyl}-1-methyl-N-(2-pyridin-2-ylethyl)-3-(trifluoromethyl)-1H-pyrazole-4-sulfonamide] |
| 11.4% | 54.1 nM | 84.4% | > 5% | C[C@]12Cc3cnn(-c4ccc(F)cc4)c3C=C1CC[C@@H]2CN(CCc1ccccc1F)S(=O)(=O)Cc1ccccc1Cl [Example 107, 1-(2-chlorophenyl)-N-[2-(2-fluorophenyl)ethyl]-N-{[(4αR,5S)-1-(4-fluorophenyl)-4α-methyl-1,4,4α,5,6,7-hexahydrocyclopenta[f]indazol-5-yl]methyl}methanesulfonamide] |
| 50.8% | 791 nM | 74% | > 5% | C[C@]12Cc3cnn(-c4ccc(F)cc4)c3C=C1CC[C@@H]2CN(Cc1cccnn1)S(=O)(=O)CC(F)(F)F [Example 132, 2,2,2-trifluoro-N-{[(4αR,5S)-1-(4-fluorophenyl)-4α-methyl-1,4,4α,5,6,7-hexahydrocyclopenta[f]indazol-5-yl]methyl}-N-(pyridazin-3-ylmethyl)ethanesulfonamide] |
